In EP3284739A1, “SUBSTITUTED (HET) ARYL COMPOUNDS AS PESTICIDES” (Bayer CropScience Aktiengesellschaft, priority 2017, dated 2018):

Key:
Assay type in all cases: in vivo
[1] = system: Ctenocephalides felis; test: Ctenocephalides felis oral test (feeding on treated citrated cattle blood); details: 48 h, Aufwandmenge 100ppm, after 2 days, read-out: Wirkung (Abtötung)
Experimental: Zwecks Herstellung einer zweckmäßigen Wirkstoffzubereitung vermischt man 10 mg Wirkstoff mit 0,5 ml Dimethylsulfoxid. Durch Verdünnen mit citriertem Rinderblut erhält man die gewünschte Konzentration.
Ca. 20 nüchterne adulte Katzenflöhe (Ctenocephalides felis) werden in eine Kammer eingesetzt, die oben und unten mit Gaze verschlossen ist. Auf die Kammer wird ein Metallzylinder gestellt, dessen Unterseite mit Parafilm verschlossen ist. Der Zylinder enthält die Blut-Wirkstoffzubereitung, die von den Flöhen durch die Parafilmmembran aufgenommen werden kann.
Nach 2 Tagen wird die Abtötung in % bestimmt. Dabei bedeutet 100 %, dass alle Flöhe abgetötet wurden; 0 % bedeutet, dass keiner der Flöhe abgetötet wurde.

[2] = system: Spodoptera frugiperda; test: Spodoptera frugiperda spray test (maize leaf discs, caterpillars); details: foliar, 168 h, Aufwandmenge 500g/ha, after 7 days, read-out: Wirkung
Description: (§1) Zur Herstellung einer zweckmäßigen Wirkstoffzubereitung löst man 1 Gewichtsteil Wirkstoff mit den angegebenen Gewichtsteilen Lösungsmittel und füllt mit Wasser, welches eine Emulgatorkonzentration von 1000 ppm enthält, bis zum Erreichen der gewünschten Konzentration auf. Zur Herstellung weiterer Testkonzentrationen wird mit emulgatorhaltigem Wasser verdünnt.
Maisblattscheiben (Zea mays) werden mit einer Wirkstoffzubereitung der gewünschten Konzentration gespritzt und nach dem Abtrocknen mit Raupen des Heerwurms (Spodoptera frugiperda) besetzt.
Nach 7 Tagen wird die Wirkung in % bestimmt. Dabei bedeutet 100 %, dass alle Raupen abgetötet wurden; 0 % bedeutet, dass keine Raupe abgetötet wurde.

[3] = system: Phaedon cochleariae; test: Phaedon cochleariae spray test (Chinese cabbage leaf discs, larvae); details: foliar, 168 h, read-out: Wirkung
Description: as §1
Chinakohlblattscheiben (Brassica pekinensis) werden mit einer Wirkstoffzubereitung der gewünschten Konzentration gespritzt und nach dem Abtrocknen mit Larven des Meerrettichblattkäfers (Phaedon cochleariae) besetzt.
Nach 7 Tagen wird die Wirkung in % bestimmt. Dabei bedeutet 100 %, dass alle Käferlarven abgetötet wurden; 0 % bedeutet, dass keine Käferlarven abgetötet wurden.

Structure (SMILES) | mortality at 100 µg/mL [1] | mortality at 500 g/ha [2] | mortality at 500 g/ha [3]
O=C(Nc1cc(-c2ccc(OC(F)(F)F)cc2)cc(NC(=O)C2CC2)n1)C1CCCC1 [I-021] | 100% | 100% | –
O=C(Nc1cc(-c2cc(F)c(C(F)(F)C(F)(F)F)cc2F)cc(NC(=O)C2CC2)n1)C1CC1 [I-048] | – | 100% | 83%
O=C(Nc1cc(-c2cc(F)c(C(F)(F)C(F)(F)F)c(Cl)c2)cc(NC(=O)C2CC2)n1)C1CC1 [I-053] | – | 100% | 100%
CCCCC(=O)Nc1cc(-c2ccc(OC(F)(F)F)cc2)cc(NC(=O)C2CC2)n1 [I-019] | – | 100% | 100%
O=C(Nc1cc(-c2ccc(OC(F)(F)F)cc2)c(Cl)c(NC(=O)C2CC2)n1)C1CC1 [I-038] | – | 83% | –
CC(C)C(=O)Nc1cc(NC(=O)C(C)C)cc(-c2ccc(C(F)(F)C(F)(F)F)c(F)c2)c1 [I-051] | 100% | 100% | 100%
CCC(=O)Nc1cc(-c2ccc(OC(F)(F)F)cc2)cc(NC(=O)C2CC2)n1 [I-020] | – | 100% | 100%
O=C(Nc1cc(-c2ccc(OC(F)(F)F)cc2)cc(NC(=O)C2CC2)n1)c1ccccc1 [I-026] | 100% | 100% | 83%
CC(C)C(=O)Nc1cc(-c2ccc(C(F)(F)C(F)(F)F)c(F)c2)cc(NC(=O)C2CC2)n1 [I-054] | – | 100% | 100%
CC(=O)Nc1cc(-c2ccc(C(F)(F)C(F)(F)F)c(F)c2)cc(NC(C)=O)n1 [I-059] | – | 100% | 100%
CC(C)(C(=O)Nc1cc(-c2ccc(OC(F)(F)F)cc2)cc(NC(=O)C2CC2)n1)C(F)(F)F [I-016] | – | 100% | 100%
O=C(Nc1cc(-c2cc(F)c(C(F)(F)C(F)(F)F)c(F)c2F)cc(NC(=O)C2CC2)n1)C1CC1 [I-047] | – | 83% | –
Cc1cc(-c2cc(NC(=O)C3CC3)nc(NC(=O)C3CC3)c2)cc(F)c1C(F)(F)C(F)(F)F [I-040] | – | 100% | 100%
CC(C)C(=O)Nc1cc(-c2ccc(OC(F)(F)F)cc2)cc(NC(=O)C2CC2)n1 [I-018] | 100% | 100% | 100%
N#Cc1ccc(C(=O)Nc2cc(-c3ccc(OC(F)(F)F)cc3)cc(NC(=O)C3CC3)n2)cc1 [I-027] | 100% | 100% | 100%
CC1(C(=O)Nc2cc(-c3ccc(OC(F)(F)F)cc3)cc(NC(=O)C3CC3)n2)CC1 [I-004] | 100% | 100% | 100%
N#Cc1cccc(CC(=O)Nc2cc(-c3ccc(OC(F)(F)F)cc3)cc(NC(=O)C3CC3)n2)c1 [I-003] | 100% | 100% | –
CCC(=O)Nc1cc(-c2ccc(C(F)(F)C(F)(F)F)c(F)c2)cc(NC(=O)C2CC2)n1 [I-055] | 100% | 100% | 100%
CCC(=O)Nc1cc(-c2ccc(C(F)(F)C(F)(F)F)c(F)c2)cc(NC(=O)CC)n1 [I-058] | – | 100% | 100%
O=C(Nc1cc(NC(=O)C2CC2)cc(-c2ccc(C(F)(F)C(F)(F)F)c(F)c2)c1)C1CC1 [I-050] | 100% | 100% | 100%
Cc1cc(-c2cc(NC(=O)C3CC3)nc(NC(=O)C3CC3)c2)ccc1C(F)(F)C(F)(F)F [I-043] | 100% | 100% | 100%

Structure (SMILES) | mortality at 100 µg/mL [1] | mortality at 500 g/ha [2] | mortality at 500 g/ha [3]
CC(C)(C(=O)Nc1cc(-c2ccc(OC(F)(F)F)cc2)cc(NC(=O)C2CC2)n1)c1ccccc1 [I-010] | – | – | 100%
CC(C)(C#N)C(=O)Nc1cc(-c2ccc(OC(F)(F)F)cc2)cc(NC(=O)C2CC2)n1 [I-009] | – | 100% | –
N#CC1(C(=O)Nc2cc(-c3ccc(OC(F)(F)F)cc3)cc(NC(=O)C3CC3)n2)CC1 [I-005] | 100% | 100% | 83%
O=C(Nc1cc(-c2c(F)cc(C(F)(F)C(F)(F)F)c(F)c2F)cc(NC(=O)C2CC2)n1)C1CC1 [I-062] | – | 100% | 100%
N#CCCC(=O)Nc1cc(-c2ccc(OC(F)(F)F)cc2)cc(NC(=O)C2CC2)n1 [I-025] | – | 100% | 83%
CC(=O)Nc1cc(-c2ccc(OC(F)(F)F)cc2)cc(NC(=O)C2CC2)n1 [I-022] | 100% | 100% | 100%
CCCC(=O)Nc1cc(-c2ccc(OC(F)(F)F)cc2)cc(NC(=O)C2CC2)n1 [I-023] | 100% | 100% | 100%
CC(=O)Nc1cc(-c2ccc(C(F)(F)C(F)(F)F)c(F)c2)cc(NC(=O)C2CC2)n1 [I-056] | – | 100% | 100%
CC1(C(=O)Nc2cc(-c3ccc(OC(F)(F)F)cc3)cc(NC(=O)C3CC3)n2)CCCC1 [I-011] | – | 100% | –
N#CC1(C(=O)Nc2cc(-c3ccc(C(F)(F)C(F)(F)F)c(F)c3)cc(NC(=O)C3CC3)n2)CC1 [I-057] | – | 100% | –
O=C(Nc1cc(-c2c(F)cc(C(F)(F)C(F)(F)F)cc2F)cc(NC(=O)C2CC2)n1)C1CC1 [I-041] | – | 83% | –
N#Cc1ccc(CC(=O)Nc2cc(NC(=O)C3CC3)cc(-c3ccc(C(F)(F)C(F)(F)F)c(F)c3)c2)cc1 [I-061] | – | 83% | –
O=C(Nc1cc(-c2cc(F)c(C(F)(F)C(F)(F)F)c(F)c2)cc(NC(=O)C2CC2)n1)C1CC1 [I-044] | – | 100% | –
O=C(Nc1cc(-c2cc(F)c(C(F)(F)C(F)(F)F)cc2Cl)cc(NC(=O)C2CC2)n1)C1CC1 [I-042] | – | 100% | –
O=C(Nc1cc(-c2ccc(C(F)(F)C(F)(F)F)c(F)c2F)cc(NC(=O)C2CC2)n1)C1CC1 [I-045] | – | 100% | 100%
O=C(Nc1cc(-c2ccc(C(F)(F)C(F)(F)F)c(Cl)c2)cc(NC(=O)C2CC2)n1)C1CC1 [I-046] | 100% | 100% | 100%
CC(C)C(=O)Nc1cc(-c2ccc(C(F)(F)C(F)(F)F)c(F)c2)cc(NC(=O)C(C)C)n1 [I-052] | 100% | 100% | 100%
N#Cc1ccc(CC(=O)Nc2cc(-c3ccc(OC(F)(F)F)cc3)cc(NC(=O)C3CC3)n2)cc1 [I-007] | 100% | 83% | –
O=C(Cc1ccc(C(F)(F)F)cc1)Nc1cc(-c2ccc(OC(F)(F)F)cc2)cc(NC(=O)C2CC2)n1 [I-002] | – | 100% | –
O=C(Nc1cc(-c2ccc(OC(F)(F)F)cc2)cc(NC(=O)C2(Cl)CC2)n1)C1CC1 [I-013] | – | 100% | –
O=C(Nc1cc(-c2ccc(OC(F)(F)F)cc2)cc(NC(=O)C2CC2(C2CC2)C2CC2)n1)C1CC1 (centres unmarked) [I-028] | 100% | 100% | 100%
